Source: PubChem BioAssay AID1919004 (Molecular Pharmacology Branch, DTP, NCI, 2023)

Test system: 883617-216-R-J1-PDC complex spheroids, growth, % test/control
Assay: Anticancer human tumor 883617-216-R-J1-PDC patient-derived bladder carcinoma cell line growth inhibition [AhR]
Details: for IC50: curve of first compound; for viability, T/C: stronger effect = lower value
Summary of the method: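 Agents were dosed in half-log steps down from roughly clinical Cmax, or from 10 microM where Cmax was unknown, alone and with AhR antagonists. Read-out: percent test/control growth of tumor spheroids containing HUVEC and MSC stromal cells.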

[1] = second compound 0.1 µM, first compound 0.0316 µM
[2] = second compound 0.1 µM, first compound 0.1 µM
[3] = second compound 0.1 µM, first compound 0.316 µM
[4] = second compound 0.1 µM, first compound 1 µM
[5] = second compound 0.316 µM, first compound 0.0316 µM
[6] = second compound 0.316 µM, first compound 0.1 µM
[7] = second compound 0.316 µM, first compound 0.316 µM
[8] = second compound 0.316 µM, first compound 1 µM
[9] = second compound 1 µM, first compound 0.0316 µM
[10] = second compound 1 µM, first compound 0.1 µM
[11] = second compound 1 µM, first compound 0.316 µM
[12] = second compound 1 µM, first compound 1 µM
[13] = second compound 3.16 µM, first compound 0.0316 µM
[14] = second compound 3.16 µM, first compound 0.1 µM
[15] = second compound 3.16 µM, first compound 0.316 µM
[16] = second compound 3.16 µM, first compound 1 µM
[17] = second compound 10 µM, first compound 0.0316 µM
[18] = second compound 10 µM, first compound 0.1 µM
[19] = second compound 10 µM, first compound 0.316 µM
[20] = second compound 10 µM, first compound 1 µM
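Note: exposure lasted 7 days after dosing on day 3 of spheroid growth.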

## CCN(c1cc(-c2ccc(CN3CCOCC3)cc2)cc(C(=O)NCc2c(C)cc(C)[nH]c2=O)c1C)C1CCOCC1 + CC(CO)NC(=O)c1cc(-c2ccc(Cl)cc2)nn(-c2cnn(C)c2)c1=O
Second compound 0.1 µM
  IC50: > 3000 nM
Second compound 0.316 µM
  IC50: > 3000 nM
Second compound 1 µM
  IC50: > 3000 nM
Second compound 3.16 µM
  IC50: > 3000 nM
Second compound 10 µM
  IC50: 2650 nM
Second compound 0.1 µM, first compound 0.00949 µM
  viability, T/C: 94.7%
Second compound 0.1 µM, first compound 0.03 µM
  viability, T/C: 101%
Second compound 0.1 µM, first compound 0.0949 µM
  viability, T/C: 75.5%
Second compound 0.1 µM, first compound 0.3 µM
  viability, T/C: 85.5%
Second compound 0.1 µM, first compound 0.949 µM
  viability, T/C: 118%
Second compound 0.1 µM, first compound 3 µM
  viability, T/C: 112%
Second compound 0.316 µM, first compound 0.00949 µM
  viability, T/C: 83.9%
Second compound 0.316 µM, first compound 0.03 µM
  viability, T/C: 70.8%
Second compound 0.316 µM, first compound 0.0949 µM
  viability, T/C: 76.5%
Second compound 0.316 µM, first compound 0.3 µM
  viability, T/C: 88.5%
Second compound 0.316 µM, first compound 0.949 µM
  viability, T/C: 77.7%
Second compound 0.316 µM, first compound 3 µM
  viability, T/C: 80.8%
Second compound 1 µM, first compound 0.00949 µM
  viability, T/C: 96.1%
Second compound 1 µM, first compound 0.03 µM
  viability, T/C: 63.2%
Second compound 1 µM, first compound 0.0949 µM
  viability, T/C: 92.5%
Second compound 1 µM, first compound 0.3 µM
  viability, T/C: 98.4%
Second compound 1 µM, first compound 0.949 µM
  viability, T/C: 124%
Second compound 1 µM, first compound 3 µM
  viability, T/C: 86%
Second compound 3.16 µM, first compound 0.00949 µM
  viability, T/C: 80.7%
Second compound 3.16 µM, first compound 0.03 µM
  viability, T/C: 85%
Second compound 3.16 µM, first compound 0.0949 µM
  viability, T/C: 122%
Second compound 3.16 µM, first compound 0.3 µM
  viability, T/C: 102%
Second compound 3.16 µM, first compound 0.949 µM
  viability, T/C: 60.4%
Second compound 3.16 µM, first compound 3 µM
  viability, T/C: 100%
Second compound 10 µM, first compound 0.00949 µM
  viability, T/C: 62.8%
Second compound 10 µM, first compound 0.03 µM
  viability, T/C: 88.9%
Second compound 10 µM, first compound 0.0949 µM
  viability, T/C: 74.5%
Second compound 10 µM, first compound 0.3 µM
  viability, T/C: 132%
Second compound 10 µM, first compound 0.949 µM
  viability, T/C: 98.5%
Second compound 10 µM, first compound 3 µM
  viability, T/C: 45%

## Nc1ncn(C2CC(O)C(CO)O2)c(=O)n1 (stereo not given) + Cc1cncc(-c2nc(NCCc3c[nH]c4ccccc34)c3ncn(C(C)C)c3n2)c1
Second compound 0.1 µM
  IC50: > 1000 nM
Second compound 0.316 µM
  IC50: > 1000 nM
Second compound 1 µM
  IC50: > 1000 nM
Second compound 3.16 µM
  IC50: > 1000 nM
Second compound 10 µM
  IC50: < 3.16 nM
Second compound 0.1 µM, first compound 0.00316 µM
  viability, T/C: 81.2%
Second compound 0.1 µM, first compound 0.01 µM
  viability, T/C: 76.9%
[1]
  viability, T/C: 76.2%
[2]
  viability, T/C: 73.1%
[3]
  viability, T/C: 77.9%
[4]
  viability, T/C: 67.7%
Second compound 0.316 µM, first compound 0.00316 µM
  viability, T/C: 92.2%
Second compound 0.316 µM, first compound 0.01 µM
  viability, T/C: 89.5%
[5]
  viability, T/C: 84.5%
[6]
  viability, T/C: 74.1%
[7]
  viability, T/C: 71.3%
[8]
  viability, T/C: 79.6%
Second compound 1 µM, first compound 0.00316 µM
  viability, T/C: 92.1%
Second compound 1 µM, first compound 0.01 µM
  viability, T/C: 89.8%
[9]
  viability, T/C: 84.8%
[10]
  viability, T/C: 77.2%
[11]
  viability, T/C: 86.1%
[12]
  viability, T/C: 78.7%
Second compound 3.16 µM, first compound 0.00316 µM
  viability, T/C: 97.2%
Second compound 3.16 µM, first compound 0.01 µM
  viability, T/C: 87.5%
[13]
  viability, T/C: 104%
[14]
  viability, T/C: 99.8%
[15]
  viability, T/C: 103%
[16]
  viability, T/C: 84.2%
Second compound 10 µM, first compound 0.00316 µM
  viability, T/C: 43.5%
Second compound 10 µM, first compound 0.01 µM
  viability, T/C: 42.6%
[17]
  viability, T/C: 45.2%
[18]
  viability, T/C: 47.7%
[19]
  viability, T/C: 51.2%
[20]
  viability, T/C: 55%

## NS(=O)(=O)OCC1CC(n2ccc3c(NC4CCc5ccccc54)ncnc32)CC1O (stereo not given) + CC(CO)NC(=O)c1cc(-c2ccc(Cl)cc2)nn(-c2cnn(C)c2)c1=O
Second compound 0.1 µM
  IC50: 788 nM
Second compound 0.316 µM
  IC50: 1500 nM
Second compound 1 µM
  IC50: 1910 nM
Second compound 3.16 µM
  IC50: 10000 nM
Second compound 10 µM
  IC50: 1170 nM
[1]
  viability, T/C: 96.4%
[2]
  viability, T/C: 90.6%
[3]
  viability, T/C: 87.1%
[4]
  viability, T/C: 40.6%
Second compound 0.1 µM, first compound 3.16 µM
  viability, T/C: 21%
Second compound 0.1 µM, first compound 10 µM
  viability, T/C: 27.2%
[5]
  viability, T/C: 55%
[6]
  viability, T/C: 94%
[7]
  viability, T/C: 63.4%
[8]
  viability, T/C: 61.5%
Second compound 0.316 µM, first compound 3.16 µM
  viability, T/C: 28.2%
Second compound 0.316 µM, first compound 10 µM
  viability, T/C: 29.2%
[9]
  viability, T/C: 64.6%
[10]
  viability, T/C: 55.6%
[11]
  viability, T/C: 109%
[12]
  viability, T/C: 67.6%
Second compound 1 µM, first compound 3.16 µM
  viability, T/C: 30.7%
Second compound 1 µM, first compound 10 µM
  viability, T/C: 42%
[13]
  viability, T/C: 75.8%
[14]
  viability, T/C: 108%
[15]
  viability, T/C: 55.6%
[16]
  viability, T/C: 65.9%
Second compound 3.16 µM, first compound 3.16 µM
  viability, T/C: 27%
Second compound 3.16 µM, first compound 10 µM
  viability, T/C: 72.7%
[17]
  viability, T/C: 72.3%
[18]
  viability, T/C: 109%
[19]
  viability, T/C: 80.1%
[20]
  viability, T/C: 51.1%
Second compound 10 µM, first compound 3.16 µM
  viability, T/C: 32.4%
Second compound 10 µM, first compound 10 µM
  viability, T/C: 16.4%
